# Laboratory results as given in publication PMC5397516, “Insights into the Mode of Action of the Sactibiotic Thuricin CD” (Frontiers in Microbiology, 2017).
# Read-outs that look alike come from different tables or passages of the source. Where no end group is shown, it is not given here.
# Legend:
# B. firmus DPC6349 cells = assay: Time course flow cytometry of membrane potential (DiOC2(3)), cell size (FSC) and granularity (SSC); format: cell-based, Bacillus firmus
# From the text: Used alone or in combination with fluorescent probes, FC enables the assessment of various structural and functional cell properties, often leading to a deeper characterization of the physiological heterogeneity of a microbial population ([Díaz et al., 2010]). Membrane potential in microbial cells can be detected by FC following staining with fluorescent lipophilic cell-permeant probes such as DiOC2(3). […] Conversely, fluorescence-independent monitoring by FC of the forward (FSC) and side-angle (SSC) light scattering properties of a bacterial population provides useful information about morphological parameters such as cell size and internal granularity/complexity, respectively ([Díaz et al., 2010]; [Shapiro, 2015]). The impact of the thuricin CD peptides, Trnα and Trnβ, on the membrane potential and morphology of sensitive B. firmus DPC6349 cells was therefore assessed by FC as follows. Cells from a 100 μl aliquot of an overnight culture were recovered by centrifugation (8260 g for 10 min), diluted 10-fold in 1 ml of LB broth and activated by incubation at 37°C for 30 min. At this point, the cells were diluted a further 25-fold and stained for 30 min with a solution of 6.3 μM DiOC2 (3) (Thermo Fisher Scientific), prepared in PBS and containing 0.21% glucose to energize the cells and thereby generate a large membrane potential. Aliquots of 1.4 ml of stained samples were acquired at medium flow rate (35 μl/sec) using a BD Accuri C6 flow cytometer (Becton Dickinson, Belgium) and a threshold of 10000 on FSC to minimize background. Acquisition and analysis of DiOC2(3) fluorescence (FL3, > 670 nm long pass), cell size (FSC) and cell complexity/granularity (SSC) were carried out using the BD Accuri C6 software v. 1.0.2 (Becton Dickinson, Belgium). The microbial population was identified based on its light scattering properties on FSC versus SSC bi-plots and a gating strategy was used to discriminate it from background particles and cell debris. The time course changes in membrane potential and morphology of DPC6349 cells following challenge with an antimicrobial were assessed using the “Run Unlimited” function of the C6 flow cytometer. Unchallenged DiOC2(3)-stained cells were initially acquired for 2 min to establish baseline levels of membrane potential and morphological parameters. Subsequently, a small aliquot of a 10–15x stock solution of an antimicrobial in PBS was added and its effect on the physiology of the sensitive target monitored over 15–25 min. The impact on the host’s membrane potential of individual, combined and sequentially added thuricin CD peptides, Trnα or Trnβ, was compared to those exerted by the proton motive force (PMF)-depleting agents Nisin A ([Bruno et al., 1992]), lacticin 3147 ([McAuliffe et al., 1998]), and valinomycin ([Shapiro, 2004]). Stock solutions of valinomycin were prepared in DMSO, whereas diluted working solutions were made using PBS. To generate high external potassium conditions and trigger the membrane depolarizing activity of valinomycin ([Shapiro, 2004]; [Cronin, 2015]), 150mM KCl was added to the PBS used to prepare the DiOC2(3) staining solution. Assays were conducted in duplicate.
# B. firmus DPC6349 = assay: Minimum inhibitory concentration (MIC) assay, two-fold serial dilutions in LB broth; format: cell-based, Bacillus firmus; conditions: for MIC, fold higher than thuricin CD: B. firmus DPC6349, in molar values
# Procedure: In this study, B. firmus DPC6349 was utilized as a surrogate thuricin CD-sensitive host, in lieu of thuricin CD-sensitive C. difficile strains. The aerobic growth conditions of DPC6349, in conjunction with its class I status, facilitated the FC experiments in this study. MIC assays were conducted as previously described with minor modifications ([Mathur et al., 2013]). Briefly, cells of the bacteriocin-sensitive strain B. firmus DPC6349 were grown overnight for 16 h in LB broth at 37°C with vigorous agitation (150 rpm). The following day, the cells were subcultured until they reached mid-logarithmic phase (an OD600 of approximately 0.5). At this point, cells were diluted such that the final inoculum for MIC assays was approximately 5 × 10^5 cfu/ml. Thuricin CD peptides, Nisin A and lacticin 3147 peptides were resuspended in LB broth. The potassium ionophore, valinomycin, was initially reconstituted in DMSO (Molecular Probes) prior to diluting in PBS and subsequently diluting in LB broth. All antimicrobials were finally diluted in LB broth to give the desired starting concentrations and two-fold serial dilutions were performed in 96-well microtitre plates, for MIC assays. MIC readings were taken at 18 h and the MIC was defined as the lowest concentration of the antimicrobial at which there was no visible growth of the target strain. Assays were conducted in triplicate.
# [1] = B. firmus DPC6349, approx. 5 × 10^5 cfu/ml, LB broth, read at 18 h, no visible growth, triplicate
Compound,"Effect on membrane potential and cell size (B. firmus DPC6349 cells; (approximately 3x MIC), DiOC2(3))",MIC (B. firmus DPC6349; [1]) [µg/mL],"MIC, fold higher than thuricin CD (B. firmus DPC6349)","MIC (B. firmus DPC6349; Cytobacillus firmus, B. firmus DPC6349, approx. 5 × 10^5 cfu/ml, LB broth, read at 18 h, no visible growth, triplicate, read-out: MIC) [µM]","Effect on cell size and granularity (B. firmus DPC6349 cells; 156 nM (0.25x MIC), 150 mM extracellular KCl)","Effect on membrane potential (B. firmus DPC6349 cells; 156 nM (0.25x MIC), 150 mM extracellular KCl, DiOC2(3))","MIC (B. firmus DPC6349; Cytobacillus firmus, DPC6349, 18 h) [µM]",Effect on cell size (FSC) and granularity (SSC) (B. firmus DPC6349 cells; 3 μM (approximately 10x MIC)),"Effect on membrane potential (B. firmus DPC6349 cells; 3 μM (approximately 10x MIC), DiOC2(3) red fluorescence)","Time to membrane depolarization after adding the peptide (B. firmus DPC6349 cells; 3 μM (approximately 10x MIC), DiOC2(3)-stained energized cells, duplicate) [min]","MIC (B. firmus DPC6349; B. firmus DPC6349, approx. 5 × 10^5 cfu/ml, LB broth, read at 18 h, no visible growth, triplicate, read-out: MIC) [µM]"
"O=C(N[C@H](CO)[C@H](O)c1ccc([N+](=O)[O-])cc1)C(Cl)Cl [Chloramphenicol, chloramphenicol]",no membrane depolarization and reduction in cell size,2.423,60 fold,7.5,,,,,,,
"CC(C)[C@@H]1NC(=O)[C@H](C)OC(=O)[C@@H](C(C)C)NC(=O)[C@@H](C(C)C)OC(=O)[C@H](C(C)C)NC(=O)[C@H](C)OC(=O)[C@@H](C(C)C)NC(=O)[C@@H](C(C)C)OC(=O)[C@H](C(C)C)NC(=O)[C@H](C)OC(=O)[C@@H](C(C)C)NC(=O)[C@@H](C(C)C)OC1=O [Valinomycin, valinomycin]",,0.69,five-fold higher,,no reduction in cell size or granularity,immediate and sharp membrane depolarization,0.625,,,,
"Nisin A (ITSISLCTPGCKTGALMGCNMKTATCHCSIHVSK; also: lantibiotic post-translational modifications (thioether rings), not given here; UniProt P13068 24-57, looked up) [pore-forming single-component lantibiotic bacteriocin]",,1.046,approximately 2.5 fold,,,,,decreases in cell size (FSC) and granularity/complexity (SSC),very fast membrane depolarization,≤ 4,0.312
